Laboratory results from patent US20230072421A1, “TARGETED RADIOPHARMACEUTICALS FOR THE DIAGNOSIS AND TREATMENT OF PROSTATE CANCER” (Bayer AS, priority 2019, published 2023).

Experiments:
C4-2 cells = assay: Cell proliferation assay (CellTiter-Glo, 5-day exposure), C4-2; type: cell-based; conditions: C4-2, 1000 cells/well, Th-227 labelled at 375 kBq/nmol, mean of 1 to 6 experiments
Method in brief: (§1)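 Cells were plated (4000/well VCaP, 1000/well for the other lines), left overnight at 37 °C with 5% CO2, then exposed for 5 days to Thorium-227-labelled PSMA ligands. Viability before and after exposure was measured by CellTiter-Glo.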

LNCaP cells = assay: Cell proliferation assay (CellTiter-Glo, 5-day exposure), LNCaP; type: cell-based, human; conditions: LNCaP, 1000 cells/well; Th-227 labelled at 375 kBq/nmol; 5-day exposure; mean of 1 to 6 experiments
Experimental: Inhibition of cell proliferation of Thorium-227 labeled PMSA SMOL ligands was tested different prostate cancer cell lines, namely 22Rv1, VCaP, C4-2 (all from ATCC, Manassas, Va., USA) and LNCaP (DMSZ, Braunschweig). Cells were seeded using the following conditions in 384 well plates (Corning) in 30 μl of growth media at 4000 cells/well for VCaP cells and 1000 cells/well for 22Rv1, C4-2 and LNCaP cells.
Cells were cultivated an incubator at 37° C. and 5% C02 over night. On the following days cells were treated in triplicates with serial dilutions of PSMA-SMOLs labeled with Th-227 at a specific activity of 375 kBq/nmol (RCP>70% as assessed by iTLC analysis; compounds where RCP was between 50-70% in individual experiments are marked with an * in the table) using a D300e Digital Dispenser (Tecan). In sister plates cell viability at treatment start (d=0) was determined using CellTiter-Glo® assay (CTG, Promega, Madison, Wis., USA), by adding 30 μl per well CTG solution, incubation for 10 min and reading of Luminescence in a PheraStarFSX instrument (BMG Labtech). After a 5-day exposure in the presenced of test compounds, cell viability of treated or untreated control cells was determined again using CellTiter-Glo® assay (Promega, Madison, Wis., USA). […] The DRC software is a Biobook Spreadsheet that was developed by Bayer AG and Bayer Business Services on the IDBS E-Workbook Suite platform (IDBS: ID Business Solutions Ltd., Guildford, UK).

VCaP cells = assay: Cell proliferation assay (CellTiter-Glo, 5-day exposure), VCaP; type: cell-based; conditions: 4000 cells/well, Th-227 labelled at 375 kBq/nmol, mean of 1 to 6 experiments
Method in brief: as §1

**Q.** What does the source list for `Cc1cc2c(c(=O)n1CC(=O)O)[O][227Th]13[O]c4c(cc(C)n(CC(=O)O)c4=O)C(=O)NCCN(CCCN(CCNC(=O)c4cc(C)n(CC(=O)O)c(=O)c4[O]1)CCNC(=O)c1cc(C)n(CC(=O)NCc4ccc(C(=O)N[C@@H](Cc5ccc6ccccc6c5)C(=O)NCCCC[C@H](NC(=O)N[C@H](CCC(=O)O)C(=O)O)C(=O)O)nc4)c(=O)c1[O]3)CCNC2=O` [Example 25-C-D-227Th]?
**A.** Proliferation assay on cancer cell lines by TTCs Default Pivot #3 IC50 [kBq/mL] C4-2 1000cells 375kBq/nmol (mean) (C4-2 cells): 2.95 kBq/mL; Proliferation assay on cancer cell lines by TTCs Default Pivot #3 IC50 [kBq/mL] LnCap 1000cells 375kBq/nmol (mean) (LNCaP cells): 0.49 kBq/mL; Proliferation assay on cancer cell lines by TTCs Default Pivot #3 IC50 [kBq/mL] VCap 4000cells 375kBq/nmol (mean) (VCaP cells): 2.26 kBq/mL

**Q.** With `COc1c(C[C@@H](NC(=O)c2ccc(CNC(=O)CN3CCN(CC(=O)[O-])CCN(CC(=O)[O-])CCN(CC(=O)[O-])CC3)cn2)C(=O)NCCCC[C@H](NC(=O)N[C@@H](CCC(=O)O)C(=O)O)C(=O)O)ccc2ccccc12.[227Th+4]` [Example 33a-B-227Th, (3R,10S,14S)-3-[(1-methoxynaphthalen-2-yl)methyl]-1,4,12-trioxo-1-{5-[(2-{4,7,10-tris[(carboxy-kappaO)methyl]-1,4,7,10-tetraazacyclododecan-1-yl-kappa^2N^1,N^4}acetamido)methyl]pyridin-2-yl}-2,5,11,13-tetraazahexadecane-10,14,16-tricarboxylato(3−)(^227Th)Thorium] as the compound, how does the “Proliferation assay on cancer cell lines by TTCs Default Pivot #3 IC50 [kBq/mL] C4-2 1000cells 375kBq/nmol (mean)” value (C4-2 cells) read?
**A.** 4.63 kBq/mL

**Q.** And the “Proliferation assay on cancer cell lines by TTCs Default Pivot #3 IC50 [kBq/mL] LnCap 1000cells 375kBq/nmol (mean)” value (LNCaP cells)?
**A.** 0.20 kBq/mL

**Q.** And the “Proliferation assay on cancer cell lines by TTCs Default Pivot #3 IC50 [kBq/mL] VCap 4000cells 375kBq/nmol (mean)” value (VCaP cells)?
**A.** 1.22 kBq/mL

**Q.** `CNc1cc(C[C@@H](NC(=O)[C@H]2CC[C@H](CNC(=O)CN3CCN4CCN5CCN(CC3)CC(=O)[O][227Th]([O]C(=O)C4)[O]C(=O)C5)CC2)C(=O)NCCCC[C@H](NC(=O)N[C@@H](CCC(=O)O)C(=O)O)C(=O)O)cc2ccccc12` [Example 37-B-227Th, (3R,10S,14S)-3-{[4-(methylamino)naphthalen-2-yl]methyl}-1,4,12-trioxo-1-{(1r,4S)-4-[(2-{4,7,10-tris[(carboxy-kappaO)methyl]-1,4,7,10-tetraazacyclododecan-1-yl-kappa^2N^1,N^4}acetamido)methyl]cyclohexyl}-2,5,11,13-tetraazahexadecane-10,14,16-tricarboxylato(3−)(^227Th)Thorium] was tested. Which “Proliferation assay on cancer cell lines by TTCs Default Pivot #3 IC50 [kBq/mL] C4-2 1000cells 375kBq/nmol (mean)” value (C4-2 cells) did it give?
**A.** 1.19 kBq/mL

**Q.** What about the “Proliferation assay on cancer cell lines by TTCs Default Pivot #3 IC50 [kBq/mL] LnCap 1000cells 375kBq/nmol (mean)” value (LNCaP cells) of the same compound?
**A.** 0.13 kBq/mL

**Q.** And the “Proliferation assay on cancer cell lines by TTCs Default Pivot #3 IC50 [kBq/mL] VCap 4000cells 375kBq/nmol (mean)” value (VCaP cells)?
**A.** 0.87 kBq/mL

**Q.** `O=C(O)CC[C@H](NC(=O)N[C@@H](CCCCNC(=O)[C@@H](Cc1ccc2c(c1)CCCO2)NC(=O)[C@H]1CC[C@H](CNC(=O)C[N+]23CCN4CCN5CC[N+]6(CC2)CC(=O)[O][227Th-2]36([O]C(=O)C4)[O]C(=O)C5)CC1)C(=O)O)C(=O)O` [Example 38-B-227Th, {N^6-[3-(3,4-dihydro-2H-1-benzopyran-6-yl)-N-{(1r,4S)-4-[(2-{4,7,10-tris[(carboxy-kappaO)methyl]-1,4,7,10-tetraazacyclododecan-1-yl-kappa^2N^1,N^4}acetamido)methyl]cyclohexane-1-carbonyl}-D-alanyl]-N^2-{[(1S)-1,3-dicarboxypropyl]carbamoyl}-L-lysinato(3−)}(^227Th)Thorium] was tested. Which “Proliferation assay on cancer cell lines by TTCs Default Pivot #3 IC50 [kBq/mL] C4-2 1000cells 375kBq/nmol (mean)” value (C4-2 cells) did it give?
**A.** 0.91 kBq/mL

**Q.** What about the “Proliferation assay on cancer cell lines by TTCs Default Pivot #3 IC50 [kBq/mL] LnCap 1000cells 375kBq/nmol (mean)” value (LNCaP cells) of the same compound?
**A.** 0.10 kBq/mL

**Q.** And the “Proliferation assay on cancer cell lines by TTCs Default Pivot #3 IC50 [kBq/mL] VCap 4000cells 375kBq/nmol (mean)” value (VCaP cells)?
**A.** 0.44 kBq/mL
